Data reported in PubChem BioAssay AID1996.
In brackets after ≈: the same amount, converted by molar mass.

Details: buffer; pH 7.4; 200.0 µM

| solubility kinetic | SMILES |
| --- | --- |
| 17.3 µg/mL (≈ 62.8 µM) | O=C(/C=C\c1ccccc1)Oc1cccc2cccnc12 |
| > 45.7 µg/mL | Cc1cccc(NC(=O)CCS(=O)(=O)c2ccccc2)n1 |
| 7.9 µg/mL (≈ 32.2 µM) | Cc1ccc(C(=O)Nc2c[nH]c(=O)[nH]c2=O)cc1 |
| > 46.3 µg/mL | CCOc1ccc(S(=O)(=O)Nc2ccc(OC)nc2)cc1 |
| 4.6 µg/mL (≈ 14.6 µM) | O=C(/C=C/c1c(Cl)nc2ccccn12)Nc1ccc(F)cc1 |
| 4.1 µg/mL (≈ 11.8 µM) | O=c1nc(SCc2c(F)cccc2Cl)nc(-c2ccccc2)[nH]1 |
| < 0.2 µg/mL | O=c1[nH]cnc2c1c(-c1ccccc1)cn2-c1ccccc1 |
| 53 µg/mL (≈ 137 µM) | COc1ccccc1NS(=O)(=O)c1ccc(C(=O)NCc2ccco2)cc1 |
| 7.4 µg/mL (≈ 14.5 µM) | CCC(C(=O)Nc1ccc(N2CCOCC2)c(S(=O)(=O)Nc2ccccc2OC)c1)c1ccccc1 (stereo unspecified) |
| > 48.2 µg/mL | NS(=O)(=O)c1ccc(CCNC(=O)c2ccc(=O)[nH]c2)cc1 |
| 11.7 µg/mL (≈ 52.4 µM) | CC(=O)Nc1cccc2c1Cc1ccccc1-2 |
| > 41.7 µg/mL | O=C(Nc1cccnc1)c1ccc(Cl)cc1[N+](=O)[O-] |
| 5 µg/mL (≈ 17.5 µM) | NC(=O)c1ccc(NCCc2ccccc2)c([N+](=O)[O-])c1 |
| 8.4 µg/mL (≈ 33 µM) | O=C(CC(=O)Nc1ccccc1)Nc1ccccc1 |
| 39.7 µg/mL (≈ 136 µM) | O=C(NC1CCCc2ccccc21)c1cn2ccccc2n1 (stereo unspecified) |
| 0.6 µg/mL (≈ 1.88 µM) | Cc1cc(-c2ccccc2)c2ccc(NC(=O)C(C)(C)C)nc2n1 |
| 6.4 µg/mL (≈ 28.3 µM) | O=C(Nc1ccc(-n2cccc2)cc1)C1CC1 |
| > 39.6 µg/mL | Cc1nccn1CCC(=O)Nc1ccc(Cl)cc1 |
| < 0.6 µg/mL | COc1ccc(NC(=O)c2ccc3ccccc3c2)cc1 |
| 17.5 µg/mL (≈ 41.4 µM) | CCOC(=O)c1ccccc1NC(=O)Cc1ccc(S(=O)(=O)N2CCCC2)s1 |
| > 44.7 µg/mL | O=C(Nc1ccc(F)cc1)C(=O)C1C(=O)Nc2ccccc21 (stereo unspecified) |

| solubility kinetic | SMILES |
| --- | --- |
| > 46.9 µg/mL | O=C(CN1CCCc2ccccc21)NCCc1ccc(F)cc1 |
| 0.9 µg/mL (≈ 2.52 µM) | O=C(CN1C(=O)S/C(=C\c2ccccn2)C1=O)Nc1ccc(F)cc1 |
| > 44.8 µg/mL | CC(=O)Nc1cccc(NC(=O)COc2ccccc2C)c1 |
| 27.8 µg/mL (≈ 93.2 µM) | O=C(Cc1ccccc1F)Nc1ccccc1N1CCCC1 |
| > 41.4 µg/mL | O=C(COc1cccc(Cl)c1)NCc1ccccc1 |
| > 43.1 µg/mL | CCN(CC)c1ccc(NC(=O)c2c(C)noc2C)cc1 |
| 19.4 µg/mL (≈ 67.7 µM) | O=c1c2ccccc2[nH]c(=S)n1CCCn1ccnc1 |
| 30.5 µg/mL (≈ 82.6 µM) | COc1ccccc1CCC(=O)OCC(=O)Nc1ccc2[nH]c(=O)[nH]c2c1 |
| 42 µg/mL (≈ 140 µM) | O=C1CSC(c2ccc([N+](=O)[O-])cc2)N1c1ccccc1 (stereo unspecified) |
| 28.6 µg/mL (≈ 96.2 µM) | O=C(Nc1cccc([N+](=O)[O-])c1)N1CCc2ccccc2C1 |
| 31.6 µg/mL (≈ 135 µM) | O=[N+]([O-])c1cccnc1Oc1ccc(F)cc1 |
| > 54.2 µg/mL | CC(=O)Oc1ccc(C(c2ccc(OC(C)=O)cc2)c2ccccn2)cc1 |
| 0.4 µg/mL (≈ 1.02 µM) | O=C(NCc1ccco1)c1ccc(Cn2c(=S)[nH]c3ccccc3c2=O)cc1 |
| > 51.7 µg/mL | Cc1onc(-c2ccccc2Cl)c1C(=O)NCc1ccccc1F |
| 2.2 µg/mL (≈ 5.75 µM) | O=C(Nc1ccc(F)cc1)N1CCCN(c2ccc(C(F)(F)F)cn2)CC1 |
| > 40.7 µg/mL | CN(C(=O)/C=C/c1ccco1)c1ccccc1C(=O)O |
| > 36 µg/mL | CC(NC(=O)c1ccccc1N)c1ccccc1 (stereo unspecified) |
| 4.6 µg/mL (≈ 12.7 µM) | CCOC(=O)C1=C(COC(=O)/C=C/c2cccc(F)c2)NC(=O)NC1C (stereo unspecified) |
| < 0.4 µg/mL | C=Cc1ccc(C(=O)NC2CCCN(Cc3ccccc3F)C2)cc1 (stereo unspecified) |
| 38.2 µg/mL (≈ 129 µM) | Cc1cccc(NC(=O)CCn2c(=O)oc3ccccc32)c1 |
| 7.4 µg/mL (≈ 17.3 µM) | CC(OC(=O)c1ccc(S(=O)(=O)NCc2ccco2)cc1)C(=O)Nc1ccccc1 (stereo unspecified) |

More lines, now with the values behind:

| SMILES | solubility kinetic |
| --- | --- |
| Fc1ccccc1N1CCN(CCCc2ccccc2)CC1 | 19.6 µg/mL (≈ 65.7 µM) |
| Cc1noc2ncnc(N3CCN(c4ccc(F)cc4)CC3)c12 | 1.7 µg/mL (≈ 5.43 µM) |
| CCc1cccc(CC)c1NC(=O)C1CCN(C(=O)c2ccco2)CC1 | 51.2 µg/mL (≈ 144 µM) |
| Cc1csc(SCC(=O)Nc2ccccc2C)n1 | > 41.8 µg/mL |
| Cc1cnc(NC(=O)CC2CCCC2)s1 | 13.3 µg/mL (≈ 59.3 µM) |
| CCN(CC)Cc1nc2c(c(=O)[nH]1)C(CC)(CC)Cc1ccccc1-2 | 1.7 µg/mL (≈ 5.01 µM) |
| COc1ccc(CN2CCSCC2)c(OC)c1C | 26.4 µg/mL (≈ 98.7 µM) |
| COC(=O)c1sccc1-n1cccc1C(=O)C(=O)N1CCOCC1 | 46.3 µg/mL (≈ 133 µM) |
| Clc1cccc(Sc2ccc(-c3ccccn3)s2)c1 | < 0.7 µg/mL |
| c1coc(-c2ccnc(-n3cccc3)n2)c1 | 1.6 µg/mL (≈ 7.57 µM) |
| O=C(c1cc(Br)c(Br)s1)N1CCc2ccccc2C1 | 7 µg/mL (≈ 17.5 µM) |
| Cc1ccc(C)c(C(C)NC(=O)C2CCCC2)c1 (stereo unspecified) | 33.2 µg/mL (≈ 135 µM) |
| O=C(NCc1ccco1)c1ccc(S(=O)(=O)N2CCCCC2)cc1 | 1.9 µg/mL (≈ 5.45 µM) |
| Cc1ccc2nc(SCC(=O)Nc3cc(C)on3)c(C)cc2c1 | < 0.2 µg/mL |
| O=C(CSc1nncs1)NC(=O)NC1CCCC1 | > 43 µg/mL |
| Cc1cc(C)c(S(=O)(=O)Cc2ccccc2)c(OC(C)C)n1 | 26 µg/mL (≈ 81.4 µM) |
| O=C(CCC1CCN(Cc2ccc(Cl)cc2)CC1)NC1CC1 | 41.3 µg/mL (≈ 129 µM) |
| CCOC(=O)c1cc(C#N)c(SCC(N)=O)[nH]c1=O | > 42.2 µg/mL |
| O=C(CN1CCCCCC1)Nc1ccc(Cl)cn1 | 35.3 µg/mL (≈ 132 µM) |
| O=C(NC(=S)N1CCN(C2CCCCC2)CC1)c1ccccc1 | > 49.7 µg/mL |
| CC(C)C12CN3CC(C(C)C)(CN(C1)C3(C)C)C2=O | 32 µg/mL (≈ 121 µM) |
| CN(CC(=O)c1c(N)n(C)c(=O)n(C)c1=O)c1ccccc1 | > 45.3 µg/mL |
| O=C(Nc1cc(Cl)ccc1-n1cncn1)C1CC1 | > 39.4 µg/mL |
| Cn1cnc2c(cnn2-c2ccccc2)c1=O | > 33.9 µg/mL |
| CCOC(=O)CN(C(=O)c1ccccc1[N+](=O)[O-])C(C)(C)C | 43.7 µg/mL (≈ 142 µM) |
| CC(NC(=O)Cn1cccc1)c1ccccc1 (stereo unspecified) | > 34.2 µg/mL |
| COc1ccc(NC(=O)C2C3CC/C=C\CCC32)cc1 (stereo unspecified) | < 0.6 µg/mL |

| SMILES | solubility kinetic |
| --- | --- |
| CCCN(CCC)C(=O)Nc1ccc(F)cc1F | > 38.4 µg/mL |
| Cn1c2ccc(F)cc2c2ncn(CC3CCCO3)c(=O)c21 (stereo unspecified) | 4 µg/mL (≈ 13.3 µM) |
| COc1ccc(/C=C/C(=O)NCCCN2CCCC2)cc1 | > 43.3 µg/mL |
| CC(NC(=O)c1ccco1)C(=O)N1CC=C(c2ccccc2)CC1 (stereo unspecified) | > 48.7 µg/mL |
| CC(C)c1onc(C(=O)N2CCC(C(N)=O)CC2)c1[N+](=O)[O-] | > 46.5 µg/mL |
| Cc1cc(-n2c(C)cc(C(=O)CSc3ccccn3)c2C)no1 | 33.4 µg/mL (≈ 102 µM) |
| CCCN1CCCC(C(=O)c2cc(C)c(OC)c(C)c2)C1 (stereo unspecified) | 39 µg/mL (≈ 135 µM) |
| Fc1cccc(-c2csc(-c3ccno3)n2)c1 | 3.6 µg/mL (≈ 14.6 µM) |
| Cc1noc(C)c1S(=O)(=O)Nc1ccc(C#N)cc1 | > 41.6 µg/mL |
| Cc1cccc(N2CC(C(=O)Nc3nccs3)CC2=O)c1C (stereo unspecified) | 42 µg/mL (≈ 133 µM) |
| O=C(O)c1ccc[nH]c1=S | > 23.3 µg/mL |
| CCn1c(C)c(C(=O)O)c2cc(OC)c3ccccc3c21 | 16.8 µg/mL (≈ 59.3 µM) |
| CSc1ccc(CNC(C)C(O)c2ccccc2)cc1.Cl (stereo unspecified) | > 48.6 µg/mL |
| CSCC[C@H](NC(=O)C1CCN(S(=O)(=O)c2ccc(C)cc2C)CC1)c1nc2ccccc2[nH]1 | 3.3 µg/mL (≈ 6.59 µM) |
| CC1(C2CC2)NC(=O)N(CC(=O)N2CCN(c3cccc(C(F)(F)F)c3)CC2)C1=O (stereo unspecified) | 21.6 µg/mL (≈ 50.9 µM) |
| CC(C)(C)C(=O)O/N=C1\CCS(=O)(=O)c2sccc21 | 36.5 µg/mL (≈ 121 µM) |
| Cc1cccc(/N=C/C2=C(O)CC(C)(C)CC2=O)n1 | > 38.7 µg/mL |
| CN(C)/C=C1\Cc2ccccc2C1=O | > 28.1 µg/mL |
| COC(=O)c1cccc(CSC(=S)N2CCCC2)c1 | 3.6 µg/mL (≈ 12.2 µM) |
| C(#CCN1CCCCC1)COCc1ccccc1.Cl | 39 µg/mL |
| CC1(C)CC(NCCC(c2ccccc2)c2ccco2)CCO1 (stereo unspecified) | 44.5 µg/mL (≈ 142 µM) |
| O=c1c2ccccc2nc(Cc2ccccc2)n1-c1ccccc1 | 39.5 µg/mL (≈ 126 µM) |
| CC(C)(CNS(=O)(=O)c1cccs1)N1CCOCC1 | > 45.7 µg/mL |
| Cc1cc(C)c2c(N)c(C(=O)c3ccc(Br)cc3)oc2n1 | 1.2 µg/mL (≈ 3.48 µM) |
| COc1ccccc1OCCNC(=O)C1CCN(C(C)=O)CC1 | > 48.1 µg/mL |
| Cc1ccc(SCC(=O)NC(=O)NC(C)C)c(C)c1 | 20 µg/mL (≈ 71.3 µM) |
| COC(=O)c1[nH]c2cccc(OC)c2c1NC(=O)CCN1CCSCC1 | 54.6 µg/mL (≈ 145 µM) |

| SMILES | solubility kinetic |
| --- | --- |
| CSc1nc2nc3c(cc2c(=O)n1-c1cccc(C)c1)COC(C)(C)C3 | 2.6 µg/mL (≈ 7.08 µM) |
| Cc1ccccc1N1CC(C(=O)N2CC(C)OC(C)C2)CC1=O (stereo unspecified) | 47.1 µg/mL (≈ 149 µM) |
| COc1ccc(CCNC(=O)c2ccnc(C(C)(C)C)c2)cc1OC | > 51.4 µg/mL |
| O=C(O)CN1CCN(Cc2cccc(Cl)c2)C1=O | > 40.3 µg/mL |
| Cc1ccc2c(CC(=O)NCC(C)(C)N3CCOCC3)coc2c1 | > 49.6 µg/mL |
| CCn1c(C)cc(C(=O)COC(=O)c2cccnc2SC)c1C | 3.7 µg/mL (≈ 11.1 µM) |
| CCOc1ccccc1NC(=S)N1CCCCCC1 | > 41.8 µg/mL |
| Fc1cnc(Cl)nc1N1CCN(c2ccccc2)CC1 | 17.4 µg/mL (≈ 59.4 µM) |
| O=C(OCC(=O)N1CCN(S(=O)(=O)c2ccccc2)CC1)C1CCC1 | 54 µg/mL (≈ 147 µM) |
| Cc1cc(Cl)ccc1NC(=O)CN1CCCC1 | > 37.9 µg/mL |
| COC(=O)Cc1ccc2oc(-c3cccnc3)nc2c1 | 37 µg/mL (≈ 138 µM) |
| Cc1c(C)c(C)c(S(=O)(=O)NCCc2ccncc2)c(C)c1C | 2 µg/mL (≈ 6.02 µM) |
| CN(C)C(=O)COc1ccc(C(=O)/C=C/c2cccnc2)cc1 | 41.6 µg/mL (≈ 134 µM) |
| CN1CCN(c2nc(-c3ccc(Cl)c(Cl)c3)nc3ccccc23)CC1 | 0.4 µg/mL (≈ 1.07 µM) |
| O=C(NC1=NCCS1)c1ccccc1 | 21.4 µg/mL (≈ 104 µM) |
| CCOc1ccc(Br)cc1CN(CC)CC.Cl | > 48.4 µg/mL |
| O=C(Oc1cccc(Cl)c1)N1CCOCC1 | 34.8 µg/mL (≈ 144 µM) |
| O=C(O)c1cn2c3c(ccc(Cl)c3c1=O)OCC2 | > 39.8 µg/mL |
| Cc1cc(/C=C2\SC(=S)NC2=O)c(C)n1-c1ccccc1 | 3.3 µg/mL (≈ 10.5 µM) |
| O=c1ccnc2n1COCS2 | > 25.5 µg/mL |
| OCCC1CN(C2CCSCC2)CCN1C1CCCC1 (stereo unspecified) | 34.5 µg/mL (≈ 116 µM) |
| O=[N+]([O-])c1ccccc1-c1ccc(C(=S)N2CCCC2)o1 | 9.4 µg/mL (≈ 31.1 µM) |
| Nc1c(N(CCCO)C(=O)C2CCCCC2)c(=O)[nH]c(=O)n1Cc1ccccc1 | > 60.1 µg/mL |
| COc1ccc(NC(=O)C2=CC=CN3CCS(=O)(=O)N=C23)c(OC)c1 | 13.8 µg/mL (≈ 38 µM) |
| COCCNC(=S)NCCc1ccc(Cl)cc1Cl | > 46.1 µg/mL |
